# Measured values as given in patent US20180244653A1, “SELECTIVE ALPHA-7 NICOTINIC RECEPTOR AGONISTS AND METHODS FOR MAKING AND USING THEM” (THE REGENTS OF THE UNIVERSITY OF CALIFORNIA, priority 2015, published 2018).
# Legend:
# Assay type in all cases: in vivo
# [1] = system: scopolamine-induced amnesic mice; assay: Object recognition test (ORT); conditions: i.p., tacrine 1 mg/kg, IND8, QND8 10 and 50 μmol/kg
# Experimental: FIG. 22 illustrates exploration time to familiar (F) and novel (N) objects of IND8 (A) and QND8 (B) in test phase of ORT. Each mouse was allowed to explore an open field apparatus for 5 min in a habituation phase. After a 24 h period, IND8, QND8, PNU-282987, vehicle (15% Tween80, SH) and tacrine (TC) were injected 1 h and scopolamine (SC) 30 min before sample phase, respectively. Each mouse explored 2 identical objects in the sample phase for 5 min and then placed in its cage for 10 min before the test phase began. In the 5 min of test phase, one of the objects was changed to a new one. The exploration time of these objects was recorded.
# In both data sets, a discrimination index (DI) was calculated and used to evaluate the ability of mice to discriminate between familiar and novel objects. Data are represented in FIG. 23.
# (§1) Amnesia was induced pharmacologically in mice via scopolamine injection (single dose) for 30 min prior to start the experiments. They were divided into vehicle group: receiving 15% tween 80 and 0.9% NSS, amnesia group: receiving scopolamine 1 mg/kg, standard positive control group receiving tacrine 1 mg/kg, and test group: receiving IND8, QND8 at dose 5, 10, 25, 50 μmol/kg, or PNU-282987 3, 10 mg/kg, single dose. All mice were acclimated in an experimental room at least 30 min before the experiments.
# The apparatus was made of black polyvinyl chloride (52×52×40 cm). The objects used in this experiment had different visual shapes and colors to be discriminated. They were placed 10 cm from the side wall in the balanced manner. The box area and objects were cleaned with 70% ethanol between each experiment to remove odor cues.
# The mice were randomly divided into different treatment groups. They were allowed to freely explore the open field apparatus for 5 min for habituation in the day prior to the experiments to get familiar with the apparatus. On the experimental day, test compounds injected 1 h, whereas scopolamine administered 30 min before the sample phase (acquisition trial). The mice were placed in the apparatus to explore 2 identical objects. After 10 min of acclimation in their cages, one object was changed to a new one, and mice were allowed to explore these objects for 5 min in the test phase (retention trial). The exploration time of each object was recorded if the nose of mice approached the objects within 3 cm or touched the objects. The discrimination index (DI) was calculated by using (TN−TF)/(TN+TF); TN and TF represented exploration time of new and familiar objects, respectively.
# [2] = system: scopolamine-induced amnesic mice; assay: Water maze test; conditions: i.p., IND8 25 and 50 μmol/kg, QND8 25 μmol/kg
# Experimental: The water maze test, a model for spatial learning and reference memory, related to function in the hippocampus, was also used as a study model in which mice locate a hidden platform after training session. Mice were trained to locate a hidden platform until a steady state measured by a shortened escape latency time was reached.
# The average swimming time in a target quadrant where the platform had previously been placed was measured in the test day, day 8 (FIG. 25).
# FIG. 25 illustrates the average swimming time in the target quadrant of water maze test. Data are presented in means±SE. IND8, QND8, PNU-282987, vehicle (15% Tween80, SH) and tacrine (TC) were injected 1 h and scopolamine (SC) 30 min before testing, respectively.
# A black circular tank (diameter 70 cm; height 28 cm) was divided into 4 quadrants with a removable escape platform (6×7.5×14 cm) centered in a target quadrant. The tank was filled with water to 15 cm height and the platform was located 1 cm below the water surface.
# Mice were trained from 5-7 days to get the steady state of escape latency. During day 1 to 5, each mouse was trained to swim from each quadrant with 1 min maximum time and allowed to stay on the platform for 10 sec. The mouse is placed on the platform for 10 s if it cannot find the hidden platform within 1 min. The escape latency time from each quadrant was measured. […] The probe test began when the escape latency time reached the steady state. The platform was removed and time spent in the target quadrant was measured. On the next day, all conditions were the same as probe test, but the platform was brought back to remind the mice of the target quadrant location. All mice were injected with test compounds 1 h and scopolamine 30 min before testing. The swimming time in the target quadrant was measured.
# [3] = system: scopolamine-induced amnesic mice; assay: Modified Y-maze test; conditions: i.p. 1 h before, scopolamine 1 mg/kg, doses as in the sentence
# Experimental: The modified Y-maze test was performed to evaluate spatial working memory. The experiment was divided into 3 sessions; (i) IND8 at 5, 10, and 50 μmol/kg or 1.5, 2.9, and 14.7 mg/kg doses, (ii) QND8 at 5, 10, and 50 μmol/kg or 1.4, 2.7, 13.5 mg/kg doses, and (iii) IND8 and QND8 at dose of 25 μmol/kg or 7.3 and 6.8 mg/kg, respectively and PNU-282987 at […] or 3, 10 mg/kg doses.
# FIG. 21 illustrates the percentage of unfamiliar arm exploration in modified Y-maze of IND8 (FIG. 21A), QND8 (FIG. 21B), and IND8, QND8, PNU-282987 (FIG. 21C). IND8, QND8, PNU-282987, vehicle (15% Tween80, SH) and tacrine (TC) were injected 1 h and scopolamine (SC) 30 min before sample phase, respectively. Each mouse was placed at the end of one arm and allowed to access 2 arms of Y-maze for 5 min in sample phase. After a 30 min period, the mouse was allowed to explore 3 arms for 5 min. The number of entries for each arm was recorded and the percentage of unfamiliar arm exploration was calculated. Data represented in means±standard errors (SE).
# Male ICR mice (6-weeks of age) were housed in 5 per cage with free access to food and tap water under 12 h light and dark cycle (light on 6:00 to 18:00) in a temperature and humidity controlled room. They were acclimated in a laboratory at least 7 days prior to starting experiments. The experimental protocols were approved by the Animal Care and Use Committee of KhonKaen University, Thailand.
# Tacrine hydrochloride (Sigma-Aldrich, St. Louis, Mo.), PNU-282987 hydrochloride (Alamone, Jerusalem, Israel) and test compounds were prepared as suspensions by using 15% tween 80 in distilled water as a vehicle, whereas scopolamine hydrochloride (Sigma-Aldrich, St. Louis, Mo.) and methyllycaconitine citrate (MLA) (Abcam, Cambridge, England) were prepared as a solution by dissolving with 0.9% normal saline solution (NSS). All compounds were administered by intraperitoneal (i.p.) injection in the amount of 5 mL/kg. Test compounds were injected 1 h and scopolamine was administered 30 min before the experiments, whereas MLA was injected 5 min before the test compounds.
# as §1
# The maze in this experiment is the same apparatus using in locomotor activity test except there is the black partition to close one of three arms. The mice were randomly separated into different treatment groups. They were injected with test compounds and scopolamine at 1 h and 30 min, respectively, before the sample phase. In this phase which one arm of Y-maze was closed by the black partition, each mouse was placed at the end of one arm and allowed to move through 2 arms for 5 min to get familiar with the two opened arms. After 30 min of resting, all arms were opened and the mouse was allowed to move freely through all 3 arms. The maze area and the partition were cleaned with 70% ethanol between each experiment to remove olfactory cues. The number of entries in each arm was counted visually if mice accessed into each arm at least 10 cm. The percentage of unfamiliar arm exploration was calculated as following equation: […]
structure (smiles),measurement,setting,value
"Nc1c2c(nc3ccccc13)CCCC2 [Tacrine, reference compound]","Discrimination index / episodic short-term memory, ORT vs scopolamine-treated group",[1],significantly improved episodic short-term memory
same,"Discrimination index / episodic short-term memory, ORT vs scopolamine-treated group",[1]; listed as tacrine,can improve cognitive deficits induced by scopolamine in all test models
same,"Time in target quadrant, water maze vs scopolamine-treated group",[2],significantly improved cognitive deficits
same,"Time in target quadrant, water maze vs scopolamine-treated group",[2]; listed as tacrine,can improve cognitive deficits induced by scopolamine in all test models
same,"Unfamiliar arm exploration / cognitive deficit, modified Y-maze vs scopolamine-treated group",[3],reversed the cognitive deficit induced by scopolamine
same,"Unfamiliar arm exploration / cognitive deficit, modified Y-maze vs scopolamine-treated group",[3]; listed as tacrine,can improve cognitive deficits induced by scopolamine in all test models
